Values quoted from earlier work in patent US20100035978A1, “COMBINATION OF CANNABINOIDS FOR THE TREATMENT OF PERIPHERAL NEUROPATHIC PAIN” (GW Pharma Limited, priority 2005, published 2010).

System: patients taking carbamezepine

For `NC(=O)N1c2ccccc2C=Cc2ccccc21` [carbamezepine], the “increase in the risk of blood dyscrasias” value (post-marketing studies) is listed as “five- to eight-fold” and the “patients with a 25% decrease in white blood cell count” value (usually reverses within the first 4 months of therapy) is listed as 7%.
